In ChEMBL document CHEMBL1201862, “PubChem BioAssay data set” (2004):
Active and inactive are the calls of the source. Rule as the data show it, for most assays here: actives have a measured AC50 and inactives only a lower limit.

Experiments:
CAAX prenyl protease 2 = molecular target: T1, CAAX prenyl protease 2 (Homo sapiens, UniProt Q9Y256); test: human Rce1 protease inhibitors, dose response, biochemical, yeast membranes, quenched-peptide fluorescence, cherry-pick (AID 588849)
T1 sequence (Q9Y256 whole entry): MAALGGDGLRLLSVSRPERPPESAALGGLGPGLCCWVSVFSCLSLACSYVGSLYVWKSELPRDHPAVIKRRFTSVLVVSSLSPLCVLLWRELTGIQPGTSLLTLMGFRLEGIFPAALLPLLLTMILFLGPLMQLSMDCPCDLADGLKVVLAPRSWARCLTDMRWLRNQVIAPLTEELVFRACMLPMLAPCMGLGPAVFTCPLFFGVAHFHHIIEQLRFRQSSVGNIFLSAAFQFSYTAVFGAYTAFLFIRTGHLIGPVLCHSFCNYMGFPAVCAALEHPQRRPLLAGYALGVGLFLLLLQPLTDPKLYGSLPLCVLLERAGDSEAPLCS

HEK293 = test: inhibitors of LMP1-driven NF-kB reporter, dose response, cell-based, HEK293, luciferase, cherry-pick (AID 588343); type: functional; conditions: Homo sapiens
[1] = molecular target: T2, Replicative DNA helicase DnaB (Mycobacterium tuberculosis, UniProt P9WMR3); test: DnaB intein splicing inhibitors, dose response, biochemical, cell-free fluorescence (AID 449749); type: functional
T2 sequence (P9WMR3 whole entry): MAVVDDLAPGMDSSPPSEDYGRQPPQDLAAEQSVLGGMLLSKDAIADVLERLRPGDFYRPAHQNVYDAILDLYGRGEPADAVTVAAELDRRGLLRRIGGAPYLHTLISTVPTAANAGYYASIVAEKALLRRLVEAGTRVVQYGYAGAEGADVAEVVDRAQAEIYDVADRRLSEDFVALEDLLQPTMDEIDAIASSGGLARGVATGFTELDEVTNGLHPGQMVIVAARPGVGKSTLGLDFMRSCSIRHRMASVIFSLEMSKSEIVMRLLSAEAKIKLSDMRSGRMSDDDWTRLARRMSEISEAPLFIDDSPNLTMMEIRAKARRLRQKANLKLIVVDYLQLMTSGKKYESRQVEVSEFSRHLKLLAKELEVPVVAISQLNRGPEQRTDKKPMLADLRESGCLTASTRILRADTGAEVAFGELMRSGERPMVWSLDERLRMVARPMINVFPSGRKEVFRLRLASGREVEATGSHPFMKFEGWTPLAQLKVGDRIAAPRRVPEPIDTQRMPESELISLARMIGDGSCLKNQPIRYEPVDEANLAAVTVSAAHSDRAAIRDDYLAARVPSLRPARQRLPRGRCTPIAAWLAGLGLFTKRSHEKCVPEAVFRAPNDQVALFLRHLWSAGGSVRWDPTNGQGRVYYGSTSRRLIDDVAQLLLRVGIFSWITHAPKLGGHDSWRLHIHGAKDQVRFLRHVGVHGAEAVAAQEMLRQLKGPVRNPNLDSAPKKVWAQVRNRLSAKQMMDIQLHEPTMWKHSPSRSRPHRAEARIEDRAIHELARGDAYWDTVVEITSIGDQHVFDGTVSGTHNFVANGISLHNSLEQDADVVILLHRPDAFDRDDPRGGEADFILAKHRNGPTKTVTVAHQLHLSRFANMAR

Protein RecA = molecular target: T3, Protein RecA (Mycobacterium tuberculosis, UniProt P9WHJ3); test: Fluorescence Cell-Free Homogeneous Dose Retest to Identify Inhibitors of RecA-Intein Splicing Activity. [Related pubchem assays (depositor defined):AID2097, AID2223, AID489010, AID492950]; type: functional
T3 sequence (P9WHJ3 whole entry): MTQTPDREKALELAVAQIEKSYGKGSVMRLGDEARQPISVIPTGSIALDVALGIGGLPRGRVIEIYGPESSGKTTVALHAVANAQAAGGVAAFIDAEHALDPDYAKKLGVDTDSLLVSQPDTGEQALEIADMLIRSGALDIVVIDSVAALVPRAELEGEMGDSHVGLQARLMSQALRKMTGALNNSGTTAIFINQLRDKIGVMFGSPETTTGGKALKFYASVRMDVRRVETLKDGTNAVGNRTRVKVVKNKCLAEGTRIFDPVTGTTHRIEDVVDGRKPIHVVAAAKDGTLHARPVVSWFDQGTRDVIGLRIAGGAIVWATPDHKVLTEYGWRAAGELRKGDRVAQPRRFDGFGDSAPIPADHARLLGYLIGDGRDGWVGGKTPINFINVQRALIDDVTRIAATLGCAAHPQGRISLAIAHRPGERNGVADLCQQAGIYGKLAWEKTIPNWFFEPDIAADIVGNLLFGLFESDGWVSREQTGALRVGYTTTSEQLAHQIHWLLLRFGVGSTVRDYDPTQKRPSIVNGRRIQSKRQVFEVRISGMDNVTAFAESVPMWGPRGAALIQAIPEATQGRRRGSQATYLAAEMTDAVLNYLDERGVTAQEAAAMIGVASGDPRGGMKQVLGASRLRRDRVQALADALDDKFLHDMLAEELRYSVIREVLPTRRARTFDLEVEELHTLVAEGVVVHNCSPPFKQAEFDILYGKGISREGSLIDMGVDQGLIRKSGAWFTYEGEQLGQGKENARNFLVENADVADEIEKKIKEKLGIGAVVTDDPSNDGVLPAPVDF

[2] = tested on: Streptococcus sp. 'group A'; test: growth inhibition of control SK(-) GAS strain, dose response, counter-screen for streptokinase expression inhibitor project, luminescence, kanamycin, BacTiterGlo, confirmation (AID 1900); type: functional, organism-based
Streptokinase A = molecular target: T4, Streptokinase A (Streptococcus pyogenes serotype M1, UniProt P10520); test: S. pyogenes streptokinase expression inhibitors, potency, dose response, plasminogen activation absorbance, OD405 (AID 1914); type: functional, Streptococcus pyogenes M1 GAS;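 also: secreted streptokinase activity via plasminogen activation per viability signal from cell pellet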
T4 sequence (P10520 whole entry): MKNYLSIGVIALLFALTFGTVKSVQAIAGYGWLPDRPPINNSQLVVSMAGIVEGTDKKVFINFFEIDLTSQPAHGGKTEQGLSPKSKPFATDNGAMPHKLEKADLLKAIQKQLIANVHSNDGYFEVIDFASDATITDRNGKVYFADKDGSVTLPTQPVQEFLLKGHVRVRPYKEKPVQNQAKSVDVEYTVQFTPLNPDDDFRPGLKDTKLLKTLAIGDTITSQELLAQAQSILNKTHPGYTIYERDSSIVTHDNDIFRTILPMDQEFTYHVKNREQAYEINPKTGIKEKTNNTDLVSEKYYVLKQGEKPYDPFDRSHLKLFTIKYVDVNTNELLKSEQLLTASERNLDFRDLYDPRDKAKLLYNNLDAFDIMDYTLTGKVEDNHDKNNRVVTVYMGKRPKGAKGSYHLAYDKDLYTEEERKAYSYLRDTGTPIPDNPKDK

Streptococcus = test: Group A Streptococcus viability loss, dose response, counter-screen for streptokinase expression inhibitor project, luminescence, BacTiterGlo (AID 1915); type: functional, organism-based;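 also: potency for reduction of bacterial viability or growth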
[3] = molecular target: T5, High affinity choline transporter 1 (Homo sapiens, UniProt Q9GZV3); test: CHT inhibitors, dose response, cell-based, 5-point CRC, membrane potential dye (AID 504840); type: functional
T5 sequence (Q9GZV3 whole entry): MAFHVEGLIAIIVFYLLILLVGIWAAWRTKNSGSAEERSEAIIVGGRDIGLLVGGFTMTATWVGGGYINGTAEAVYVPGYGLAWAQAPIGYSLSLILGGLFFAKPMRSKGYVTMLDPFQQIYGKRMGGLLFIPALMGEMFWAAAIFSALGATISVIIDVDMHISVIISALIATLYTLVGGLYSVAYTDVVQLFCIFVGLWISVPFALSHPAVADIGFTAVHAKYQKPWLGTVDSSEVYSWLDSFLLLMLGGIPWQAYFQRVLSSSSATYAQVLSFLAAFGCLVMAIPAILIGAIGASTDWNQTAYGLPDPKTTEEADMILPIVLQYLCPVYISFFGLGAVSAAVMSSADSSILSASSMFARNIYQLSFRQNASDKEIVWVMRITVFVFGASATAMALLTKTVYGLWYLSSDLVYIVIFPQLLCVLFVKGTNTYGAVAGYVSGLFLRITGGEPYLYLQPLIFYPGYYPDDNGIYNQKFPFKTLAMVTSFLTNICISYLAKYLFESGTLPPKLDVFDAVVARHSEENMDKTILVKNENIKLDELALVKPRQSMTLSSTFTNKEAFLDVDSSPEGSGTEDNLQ

INS1 = test: beta cell apoptosis inhibitors, cytokine rescue, dose response, luminescence, retest (AID 449756); type: functional, cell-based; conditions: Rattus norvegicus;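 also: cell death triggered by IL-1 beta plus TNF-alpha plus IFN-gamma mixture; protective hits raise ATP signal compared with cytokine alone wells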
[4] = Shn3 3'UTR reporter inhibitors, dose response, cell-based, Clone20 osteoblasts, firefly luciferase, cherry-picked (AID 624132); type: functional;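 also: firefly luciferase luminescence from reporter carrying the Shn3 3'UTR in osteoblasts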
[5] = HepG2 cell cytotoxicity, dose response, cytotoxicity control for Shn3 inhibitor project, CellTiter-Glo, cherry-picked (AID 624134); type: functional, cell-based
[6] = control 3'UTR Renilla luciferase suppression, dose response, counter-screen for Shn3 inhibitor project, cell-based, Clone20-Shn3RL, cherry-picked (AID 624133); type: functional

Structure (SMILES): CCOc1ccc(-c2nc(CCl)cs2)cc1OC
- AC50 (CAAX prenyl protease 2): > 100 µM (inactive)

Structure (SMILES): Cc1cc(C)n(-c2ccc(NN=C(C#N)C#N)cc2)n1
- AC50 (HEK293): 1.82 µM (active)
- AC50 [1]: 5.45 µM (active)
- EC50 (Protein RecA): 9.25 µM (active)

Structure (SMILES): COc1ccc(-c2oc3ncn(Cc4ccco4)c(=N)c3c2-c2ccc(OC)cc2)cc1
- EC50 [2]: 6.01 µM (active)
- EC50 (Streptokinase A): 14.8 µM (active)
- EC50 (Streptococcus): > 150 µM (not active)
- AC50 (CAAX prenyl protease 2): 79.2 µM (active)

Structure (SMILES): CCOC(=O)N1CCC(NC(=O)C2CCCN(Cc3nc(-c4cccc(Cl)c4)oc3C)C2)CC1 (centres undefined)
- AC50 (HEK293): 2.51 µM (active)
- IC50 [3]: 6.92 µM (active)
- AC50 (INS1): 3.71 µM (active)
- AC50 [4]: 9.5 µM (active)
- AC50 [5]: 55.4 µM (active)
- AC50 [6]: 1.81 µM (active)
